Laboratory results from publication PMC6001238, “Iterative Chemical Engineering of Vancomycin Leads to Novel Vancomycin Analogs With a High in Vitro Therapeutic Index” (Frontiers in Microbiology, 2018).
Values after ≈ are worked out from the molar mass of the structure shown. Read-outs that look alike come from different tables or passages of the source.

Experiments:
[1] = system: VRE39; experiment: MIC in the absence and presence of 10 µM vancomycin (vanA induction); type: cell-based, Enterococcus faecalis
Procedure: (§1) The minimum inhibitory concentration (MIC) was determined using the broth microdilution method according to the antimicrobial susceptibility testing standards of the clinical and laboratory standards institute ([Clinical and Laboratory Standards Institute [CLSI], 2012]). Ultrapure water and non-inoculated broth were used as controls. In one case, a final concentration of 10 μM vancomycin was included with the vancomycin analog or control antibiotic.

[2] = system: S. aureus VSSA (ATCC 6538); experiment: MIC, broth microdilution, vancomycin-sensitive S. aureus (VSSA/MSSA, ATCC 6538); type: cell-based, Staphylococcus aureus
Procedure, shortened: (§2)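 CLSI broth microdilution; water and uninoculated-broth controls; one arm supplemented with vancomycin, final 10 μM, given with analogue or control antibiotic.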

[3] = system: VE 157 (VanB); experiment: MIC, VanB-type VRE strain VE 157; type: cell-based, Enterococcus; conditions: VE 157, VanB; read-out: MIC
Procedure: as §1

[4] = system: VE 150 (VanB); experiment: MIC, VanB-type VRE strain VE 150; type: cell-based, Enterococcus; conditions: VE 150, VanB; read-out: MIC
Procedure: as §1

[5] = system: MRSA KS89; experiment: MIC, broth microdilution, MRSA KS89; type: cell-based, Staphylococcus aureus
Procedure, shortened: as §2

[6] = system: human cervix carcinoma (HeLa) cells; experiment: Cytostatic activity, HeLa cell proliferation; type: cell-based; conditions: mean ± SD of three experiments; highest concentration tested 250 µM; 4 days; read-out: Toxicity (IC50) HeLa
Procedure, shortened: (§3)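 Coulter counter cell counts after 37°C culture with compound; IC50 = concentration giving 50% growth inhibition vs negative control. Incubation: L1210 2 d, CEM 3 d, HeLa 4 d. Suspension density before mixing with an equal volume of dilution: 300,000–500,000 cells/mL.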

[7] = system: Murine leukemia (L1210) cells; experiment: Cytostatic activity, L1210 cell proliferation; type: cell-based; conditions: mean ± SD of three experiments; highest concentration tested 250 µM; 2 days; read-out: Toxicity (IC50) L1210
Procedure, shortened: as §3

[8] = system: VE 148 (VanB); experiment: MIC, VanB-type VRE strain VE 148; type: cell-based, Enterococcus; conditions: VE 148, VanB; read-out: MIC
Procedure: as §1

[9] = system: L1210, CEM and HeLa cell lines; experiment: Cytostatic activity, average or summary over L1210, CEM and HeLa; type: cell-based
Procedure, shortened: as §3

[10] = system: VE 152 (VanB); experiment: MIC, VanB-type VRE strain VE 152; type: cell-based, Enterococcus; conditions: VE 152, VanB; read-out: MIC
Procedure: as §1

[11] = system: E. faecalis VRE 37; experiment: MIC, broth microdilution, vancomycin-resistant E. faecalis VRE 37 (VanA); type: cell-based, Enterococcus faecalis
Procedure, shortened: as §2

[12] = system: E. faecalis VRE 6; experiment: MIC, broth microdilution, vancomycin-resistant E. faecalis VRE 6 (VanA); type: cell-based, Enterococcus faecalis
Procedure, shortened: as §2

[13] = system: VE 82 (VanC1); experiment: MIC, VanC1-type VRE strain VE 82; type: cell-based, Enterococcus gallinarum; conditions: VE 82, VanC1; read-out: MIC
Procedure: as §1

[14] = system: E. faecalis VRE 29; experiment: MIC, broth microdilution, vancomycin-resistant E. faecalis VRE 29 (VanA); type: cell-based, Enterococcus faecalis
Procedure, shortened: as §2

[15] = system: E. faecalis VSE 1; experiment: MIC, broth microdilution, vancomycin-sensitive E. faecalis (VSE 1); type: cell-based, Enterococcus faecalis
Procedure, shortened: as §2

[16] = system: 24 clinical MRSA isolates; experiment: MIC against a set of 24 clinical MRSA isolates (range, MIC50, TI); type: cell-based, Staphylococcus aureus
Procedure: as §1

[17] = system: VE 149 (VanB); experiment: MIC, VanB-type VRE strain VE 149; type: cell-based, Enterococcus; conditions: VE 149, VanB; read-out: MIC
Procedure: as §1

[18] = system: S. aureus VISA/HIP5827; experiment: MIC, broth microdilution, vancomycin-intermediate S. aureus VISA HIP5827; type: cell-based, Staphylococcus aureus
Procedure, shortened: as §2

[19] = system: human T-lymphocyte (CEM) cells; experiment: Cytostatic activity, CEM cell proliferation; type: cell-based; conditions: mean ± SD of three experiments; highest concentration tested 250 µM; 3 days; read-out: Toxicity (IC50) CEM
Procedure, shortened: as §3

[20] = system: S. aureus VRSA; experiment: MIC, broth microdilution, vancomycin-resistant S. aureus (VRSA); type: cell-based, Staphylococcus aureus
Procedure, shortened: as §2

[21] = system: 33 clinical VRE isolates; experiment: MIC against a set of 33 clinical VRE isolates (range, MIC50, TI); type: cell-based, Enterococcus faecalis
Procedure: as §1

[22] = system: MRSA; experiment: Minimum bactericidal concentration against MRSA; type: cell-based, Staphylococcus aureus
Procedure: Plates were incubated overnight at 37°C and colony growth was inspected.

[23] = system: E. faecalis VRE 53; experiment: MIC, broth microdilution, vancomycin-resistant E. faecalis VRE 53 (VanA); type: cell-based, Enterococcus faecalis
Procedure, shortened: as §2

CNC(CC(C)C)C(=O)NC1C(=O)NC(CC(N)=O)C(=O)NC2C(=O)NC3C(=O)NC(C(=O)NC(C(=O)NCC(=O)Nc4ccc(-c5ccccc5)cc4)c4cc(O)cc(O)c4-c4cc3ccc4O)C(O)c3ccc(c(Cl)c3)Oc3cc2cc(c3OC2OC(CO)C(O)C(O)C2OC2CC(C)(N)C(O)C(C)O2)Oc2ccc(cc2Cl)C1O (stereo not shown) [Vanc-83]
MIC ([1]; VRE39, 0 µM vancomycin): 1.56 µM | MIC ([1]; VRE39, 10 μM vancomycin added): 3.13 µM | MIC ([2]; Staphylococcus aureus VSSA, read-out: MIC): 0.20 µM (≈ 0.332 µg/mL) | MIC-fold improvement vs. vancomycin ([2]; VSSA, ratio of MIC of vancomycin and MIC of analogue): 4 | MIC [3]: 1.56 µM (≈ 2.59 µg/mL) | MIC [4]: 1.56 µM (≈ 2.59 µg/mL) | MIC-fold improvement vs. vancomycin ([5]; MRSA KS8, ratio of MIC of vancomycin and MIC of analogue): 4 | MIC ([5]; Staphylococcus aureus MRSA KS8, read-out: MIC): 0.20 µM (≈ 0.332 µg/mL) | IC50 [6]: 105 ± 27 µM | IC50 [7]: 179 ± 41 µM | MIC [8]: 1.56 µM (≈ 2.59 µg/mL) | IC50 ([9]; average IC50 used for TI in Table S5, >250 entered as 250, read-out: IC50): 107 µM | IC50 ([9]; average of L1210, CEM and HeLa, read-out: Toxicity (IC50) Average): 107 µM | MIC [10]: 1.56 µM (≈ 2.59 µg/mL) | MIC ([11]; Enterococcus faecalis VRE 37 (vancomycin-resistant), read-out: MIC): 1.56 µM (≈ 2.59 µg/mL) | MIC-fold improvement vs. vancomycin ([11]; VRE 37, ratio of MIC of vancomycin and MIC of analogue): 256 | MIC ([12]; Enterococcus faecalis VRE 6 (vancomycin-resistant), read-out: MIC): 0.78 µM (≈ 1.29 µg/mL) | MIC-fold improvement vs. vancomycin ([12]; VRE 6, ratio of MIC of vancomycin and MIC of analogue): 256 | MIC [13]: 0.78 µM (≈ 1.29 µg/mL) | MIC ([14]; Enterococcus faecalis VRE 29 (vancomycin-resistant), read-out: MIC): 1.56 µM (≈ 2.59 µg/mL) | MIC-fold improvement vs. vancomycin ([14]; VRE 29, ratio of MIC of vancomycin and MIC of analogue): 256 | MIC ([15]; Enterococcus faecalis VSE 1 (vancomycin-sensitive), read-out: MIC): 0.39 µM (≈ 0.646 µg/mL) | MIC-fold improvement vs. vancomycin ([15]; VSE 1, ratio of MIC of vancomycin and MIC of analogue): 4 | MIC Range ([16]; 24 clinical MRSA isolates): 0.10 to 0.78 µM | TI (IC50/MIC50) ([16]; in vitro therapeutic index, MRSA): 535 | MIC50 ([16]; median MIC, 24 clinical MRSA isolates, read-out: MIC50): 0.20 µM (≈ 0.332 µg/mL) | MIC [17]: 1.56 µM (≈ 2.59 µg/mL) | MIC ([18]; Staphylococcus aureus VISA/HIP5827, read-out: MIC): 1.56 µM (≈ 2.59 µg/mL) | MIC-fold improvement vs. vancomycin ([18]; VISA/HIP5827, ratio of MIC of vancomycin and MIC of analogue): 4 | IC50 [19]: 37 ± 6 µM | MIC ([20]; Staphylococcus aureus VRSA, read-out: MIC): 0.39 µM (≈ 0.646 µg/mL) | MIC-fold improvement vs. vancomycin ([20]; VRSA, ratio of MIC of vancomycin and MIC of analogue): 256 | MIC Range ([21]; 33 clinical VRE isolates): 0.78 to 3.13 µM | TI (IC50/MIC50) ([21]; in vitro therapeutic index, VRE): 69 | MBC relative to MIC [22]: MBC equaling their MIC values | MIC ([23]; Enterococcus faecalis VRE 53 (vancomycin-resistant), read-out: MIC): 1.56 µM (≈ 2.59 µg/mL) | MIC-fold improvement vs. vancomycin ([23]; VRE 53, ratio of MIC of vancomycin and MIC of analogue): 256
